Measurements published in US12390472B2 (SUZHOU SINOVENT PHARMACEUTICALS CO., LTD., priority 2018, dated 2025).
Like-named read-outs stand apart in the source and are kept apart here.

Assays:
EZH2 (wt) = EZH2 (wt) (Homo sapiens (Human), UniProt Q15910); experiment: Test on EZH2 (wt) inhibitory activity ([3H]-SAM Flashplate); format: biochemical
Procedure: Protocols Compounds at different concentrations were dissolved in 100% DMSO and transferred to test plates, and the final concentration of DMSO was 1%. The enzyme solution and the mixture solution of peptide and [3H]-SAM were prepared with 1-fold reaction buffer. 10 uL of enzyme solution was added to the test plate and wells only added with 10 uL of reaction buffer were used as negative control wells. After incubation at room temperature for 15 min, the plate was added with 10 uL of the mixture solution of peptide and [3H]-SAM per well to initiate the reaction which lasts for 60 min at room temperature. The pre-cooled SAM was added to 1-fold reaction buffer to prepare a stop buffer. The reaction was stopped by adding 10 uL of stop buffer per well. 25 uL of solution was transferred from the reaction plate to Flashplate and incubated at room temperature for at least 1 h. The Flashplate was washed 3 times with dH2O+0.1% Tween-20. The plate was read by Microbeta.
(§1) Data were fitted by GraphPad Prism 5 software and inhibition rate was calculated according to equation (1) Inh %=(Max−Signal)/(Max−Min)×100 (1)
(§2) IC50 was calculated using equation (2) Y=Bottom+(Top−Bottom)/(1+10^((Log IC50−X)×Hill Slope))
(§3) Y: inhibition rate; X: concentration of the compound

EZH2 (Y641F) = EZH2 (Y641F) (Homo sapiens (Human), UniProt Q15910, Y641F); experiment: Test on EZH2 (Y641F) inhibitory activity; format: biochemical
Procedure: (§4) Compounds at different concentrations were dissolved in 100% DMSO and transferred to test plates, and the final concentration of DMSO was 1%. Enzyme solution and substrate SAM solution were prepared with 1-fold reaction buffer (optimized Tris buffer). 5 uL of enzyme solution was added to the test plate and wells only added with 5 uL of reaction buffer were used as negative control wells. After incubation at room temperature for 15 min, the plate was added with 5 uL of substrate solution per well to initiate the reaction, and then incubated at room temperature for 60 min. 5 uL of receptor solution was added and the plate was incubated away from light at room temperature for 60 min. 10 uL of donor solution was added and the plate was incubated away from light at room temperature for 30 min. The endpoint values were read on the Envision and the IC50 was calculated.
as §1, §2, §3

EZH2 (Y641N) = EZH2 (Y641N) (Homo sapiens (Human), UniProt Q15910, Y641N); experiment: Test on EZH2 (Y641N) inhibitory activity; format: biochemical
Sequence of EZH2 (Y641N) (Q15910 whole entry Y641N): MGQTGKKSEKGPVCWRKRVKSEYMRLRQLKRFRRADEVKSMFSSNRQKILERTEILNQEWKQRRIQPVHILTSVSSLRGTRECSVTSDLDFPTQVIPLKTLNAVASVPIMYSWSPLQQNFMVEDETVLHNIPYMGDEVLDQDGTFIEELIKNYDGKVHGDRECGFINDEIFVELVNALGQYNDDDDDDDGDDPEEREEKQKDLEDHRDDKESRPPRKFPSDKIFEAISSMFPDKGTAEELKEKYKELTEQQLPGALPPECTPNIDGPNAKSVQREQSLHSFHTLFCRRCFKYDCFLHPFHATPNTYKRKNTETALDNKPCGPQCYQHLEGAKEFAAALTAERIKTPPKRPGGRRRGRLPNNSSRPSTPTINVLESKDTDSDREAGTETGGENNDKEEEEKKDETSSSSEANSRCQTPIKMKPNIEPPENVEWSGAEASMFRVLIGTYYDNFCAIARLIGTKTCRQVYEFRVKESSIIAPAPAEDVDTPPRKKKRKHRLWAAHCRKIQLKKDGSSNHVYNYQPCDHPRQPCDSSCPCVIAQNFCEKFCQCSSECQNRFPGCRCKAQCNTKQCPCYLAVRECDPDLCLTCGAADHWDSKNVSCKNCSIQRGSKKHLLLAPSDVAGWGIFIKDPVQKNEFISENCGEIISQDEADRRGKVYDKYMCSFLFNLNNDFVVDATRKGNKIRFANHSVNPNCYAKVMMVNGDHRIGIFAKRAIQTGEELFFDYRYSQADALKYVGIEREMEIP
Sequence of EZH2 (Y641N) (O75530 whole entry partner): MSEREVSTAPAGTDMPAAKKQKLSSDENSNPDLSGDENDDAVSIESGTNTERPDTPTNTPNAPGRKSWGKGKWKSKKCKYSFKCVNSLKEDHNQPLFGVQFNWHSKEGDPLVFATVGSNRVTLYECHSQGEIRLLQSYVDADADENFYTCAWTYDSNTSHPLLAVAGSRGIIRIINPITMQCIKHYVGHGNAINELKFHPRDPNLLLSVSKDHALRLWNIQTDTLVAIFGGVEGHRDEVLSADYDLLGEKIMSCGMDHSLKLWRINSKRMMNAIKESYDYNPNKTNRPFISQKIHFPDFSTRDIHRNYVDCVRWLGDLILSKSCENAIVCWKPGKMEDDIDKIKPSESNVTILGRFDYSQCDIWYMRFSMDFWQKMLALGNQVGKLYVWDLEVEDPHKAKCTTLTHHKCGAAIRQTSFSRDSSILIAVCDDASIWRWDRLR
Sequence of EZH2 (Y641N) (Q15022 whole entry partner): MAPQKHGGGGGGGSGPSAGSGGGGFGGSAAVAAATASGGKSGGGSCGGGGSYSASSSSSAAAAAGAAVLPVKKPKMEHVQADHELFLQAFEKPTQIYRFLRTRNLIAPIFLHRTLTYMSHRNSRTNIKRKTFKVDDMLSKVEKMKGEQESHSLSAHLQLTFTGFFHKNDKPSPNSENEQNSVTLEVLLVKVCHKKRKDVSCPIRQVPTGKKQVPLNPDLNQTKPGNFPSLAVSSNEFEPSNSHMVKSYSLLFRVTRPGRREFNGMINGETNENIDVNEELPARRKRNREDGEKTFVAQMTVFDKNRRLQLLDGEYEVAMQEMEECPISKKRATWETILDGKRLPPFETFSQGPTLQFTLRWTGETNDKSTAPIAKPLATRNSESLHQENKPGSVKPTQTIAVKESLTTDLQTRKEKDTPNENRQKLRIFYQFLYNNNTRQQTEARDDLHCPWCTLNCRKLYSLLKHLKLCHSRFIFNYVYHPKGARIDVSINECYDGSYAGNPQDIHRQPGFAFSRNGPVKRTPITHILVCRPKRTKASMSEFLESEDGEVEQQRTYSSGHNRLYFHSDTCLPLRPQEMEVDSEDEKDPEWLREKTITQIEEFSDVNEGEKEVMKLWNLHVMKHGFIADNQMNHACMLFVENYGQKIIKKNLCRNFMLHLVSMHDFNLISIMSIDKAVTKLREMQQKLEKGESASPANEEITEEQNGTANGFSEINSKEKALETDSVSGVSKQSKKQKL
Procedure: as §4, §1, §2, §3

[1] = In vivo pharmacokinetic properties in mice; set-up: species or system mouse; Cmax: unit: ng/mL; details: male ICR mice; for F: intragastric 250 mg/kg vs intravenous 5 mg/kg; for CL / AUC(0-inf) / Cmax / Tmax / half-life / AUC0-∞ / T1/2: single intravenous 5 mg/kg and intragastric 250 mg/kg study
Procedure: Male ICR mice were divided into different groups with 3 mice in each group, and single intravenous injection and single intragastric administration were conducted respectively. The compounds were formulated with 10% DMSO/90% (20% Captisol) to reach an appropriate concentration and then administered intravenously at 5 mg/kg. The compounds were formulated with 0.5% CMC-Na/0.1% Tween 80 (pH=3-4) to reach an appropriate concentration and then administered intragastrically at 250 mg/kg. Blood was taken at 5 min, 15 min, 30 min, 1 h, 2 h, 4 h, 6 h, 8 h and 24 h after administration, and then subjected to EDTA-K2 anticoagulation. The concentration of the compound in the plasma was quantitatively detected by an LC-MS/MS method.

[2] = test system: subcutaneous xenograft tumor model of human B lymphocyte Pfeiffer; experiment: In vivo efficacy in subcutaneous xenograft tumor model of human B lymphocyte Pfeiffer; set-up: species or system mouse; details: SCID Beige mice, tumor volume 21 days after administration
Procedure: Human B lymphocyte strain Pfeiffer was cultured in vitro, in a monolayer way, in a RPMI-1640 medium containing 10% fetal bovine serum, 100 U/mL penicillin and 100 μg/mL streptomycin in an incubator at 37° C./5% CO2. Conventional medium refreshment and subculturing were carried out twice a week, and cells in logarithmic growth phase were collected and used for tumor inoculation after being counted.
Female SCID Beige mice, aged 6-8 weeks and weighed 18-22 g were used in the experiment. The experiment started after 7-day adaptive feed.
Each mouse was inoculated subcutaneously with 10×10^6 Pfeiffer cells in a volume of 0.2 mL in the right side of the neck. The cells were suspended with PBS and matrigel (volume ratio 1:1). After the average tumor volume reached 130 mm^3, the mice were divided into groups with 8 mice per group for administration. The administration volume was 10 uL/g and the dose was 100 mg/kg if there's no special labeling ((p.o. administration, QD, continuous administration for 21 days).
Animal body weights were measured twice weekly and animal mortality and side effects within each group were recorded based on the number of animals in the group.
The experimental indices were to investigate whether tumor growth was inhibited or delayed or the tumor was cured. Tumor diameters were measured twice weekly using a vernier caliper. The tumor volume was calculated according to the following formula: V=0.5 a×b^2, where a and b represent the long diameter and short diameter of the tumor, respectively. The tumor growth inhibitions (TGIs) of the compounds were evaluated by T/C (%). The percentage value of T/C (%) is an index for reflecting the tumor growth inhibition, where T and C represent the average tumor volume of the administration group and the control group, respectively, at a certain day.
The tumor growth inhibition rate was calculated according to the following formula: TGI (%)=(1−(Ti−T0)/(Vi−V0))×100, where Ti is the average tumor volume of a certain administration group on a certain day, T0 is the average tumor volume of the administration group at the start of administration, Vi is the average tumor volume of the vehicle control group on a certain day (same day as Ti) and V0 is the average tumor volume of the vehicle control group at the start of administration.
Relative tumor volumes at each time point for each group were statistically analyzed and differences among groups were assessed based on the data. The statistical method used for testing was one-way ANOVA.

Pfeiffer cells = experiment: Experiment on Pfeiffer cell proliferation (CellTiter-Glo); format: cell-based, human
Procedure: 90 uL of cells were added to each well of a 96-well plate at 12000 cells/well, and cell-free culture medium was added to blank control wells. The plate was incubated overnight in an incubator at 37° C., 5% CO2 and 100% relative humidity. The compounds were diluted from highest to lowest concentration gradient with DMSO to make stock solutions at 400-fold and 10-fold concentration. 10 μL of 10× compound working solution was added to the cell culture plate, and the total concentration of the compound was detected from 10 μM, 9 concentration points in total, and 3-fold serial dilution was performed. 10 μL of DMSO-cell culture medium mixture solution was added to the vehicle control wells and blank control wells. The final concentration of DMSO was 0.25%. The plate was put back in the incubator for another 7 days of culturing.
The cell culture plate cultured for 7 days was taken out of the incubator, and the suspended cells in the 96-well plate were mixed well by pipetting multiple times. 74 uL of fresh cell culture medium was added to a new 96-well plate, and 16 uL of cell suspension was pipetted from the 96-well plate with cells mixed well by pipetting into the new 96-well plate to bring the total volume to 90 uL. Cells in the new 96-well plate were treated with the compound. The new 96-well plate was put back in the incubator for another 7 days of culturing, and then cell viability was detected directly.
84 μL of cell suspension was taken from the cell culture plate for cell viability detection.
CellTiter-Glo buffer and substrate were thawed and balanced to room temperature. The CellTiter-Glo buffer was added to a bottle of CellTiter-Glo substrate to dissolve the substrate, thereby preparing CellTiter-Glo working solution. The bottle was subjected to slow vortex shaking to completely dissolve the substrate. The cell culture plate was taken out and balanced to room temperature for 30 min. 50 μL of CellTiter-Glo working solution was added to each well. The cell plate was wrapped with aluminum foil to keep out of light. The plate was shaken on an orbital shaker for 2 min to induce cell lysis. The plate was placed at room temperature for 10 min to stabilize the luminescence signals. The luminescence signals were detected on 2104 En Vision plate reader.
Inhibition rates of compounds at different concentrations were calculated in Excel, followed by plotting the inhibition curves and calculating relevant parameters including minimum (%), maximum (%), and absolute IC50 using GraphPad Prism software.

WSU-DLCL2 cells = experiment: Experiment on WSU-DLCL2 cell proliferation (Calcein-AM); format: cell-based
Procedure: WSU-DLCL2 cells were plated in a 96-well plate and 100 uL of cells (a density of 1×10^5 cells/mL) and 50 uL of compound stock at 3-fold concentration was added to each well, and the final volume was 150 uL/well. After 6 days of culturing, on day 7, the cells in the well plate were mixed well by pipetting, and 50 uL of the cell suspension was pipetted to be tested for cell viability using Calcein-AM. 50 uL of the cell suspension was added to a 96-well plate coated by poly-D-Lysine, and then 50 uL of HBSS containing 2 uM Calcein-AM was added to make the final concentration of Calcein-AM 1 uM. After incubation for 10 min at room temperature, the cells were rapidly centrifuged to be deposited on the bottom of the plate. The cells were cultured in the incubator for another 40 min and then the plate was read on Acumen.
The remaining cells were diluted and then plated in a 96-well plate, and 100 uL of cells and 50 uL of a compound at 3-fold concentration were added to each well for further culturing until day 14, and the cell viability was detected as described above. The IC50 was calculated.

EZH2 enzyme complex = EZH2 enzyme complex (Homo sapiens (Human), UniProt Q15910); experiment: Test on EZH2 inhibitory activity (TR-FRET); format: biochemical; details: EZH2 enzyme complex 25 ng/uL, histone H3 peptide 4 uM, SAM 2 uM, 300 min; read-out: IC50 of EZH2 inhibition
Sequence of EZH2 enzyme complex (Q15910 whole entry): as the sequence (Q15910 whole entry Y641N) above, with N641Y counted along it
Sequence of EZH2 enzyme complex (O75530 whole entry partner): as the sequence (O75530 whole entry partner) above
Sequence of EZH2 enzyme complex (Q15022 whole entry partner): as the sequence (Q15022 whole entry partner) above

[3] = mouse, plasma, oral, read-out: Cmax
[4] = mouse, plasma, oral, read-out: Tmax
[5] = Day 7, read-out: IC50 Pfeiffer proliferation Day 7
[6] = Day 14, read-out: IC50 Pfeiffer proliferation Day 14
[7] = WSU-DLCL2, Day 7, read-out: IC50 WSU-DLCL2 proliferation Day 7
[8] = WSU-DLCL2, Day 14, read-out: IC50 WSU-DLCL2 proliferation Day 14
[9] = Homo sapiens, 168 h, Day 7, read-out: IC50 Pfeiffer proliferation Day 7
[10] = Homo sapiens, 336 h, Day 14, read-out: IC50 Pfeiffer proliferation Day 14
[11] = Homo sapiens, WSUDLCL2, 168 h, WSU-DLCL2, Day 7, read-out: IC50 WSU-DLCL2 proliferation Day 7
[12] = Homo sapiens, WSUDLCL2, 336 h, WSU-DLCL2, Day 14, read-out: IC50 WSU-DLCL2 proliferation Day 14

Sequence of EZH2 (wt) (Q15910 whole entry): as the sequence (Q15910 whole entry Y641N) above, with N641Y counted along it
Sequence of EZH2 (wt) (O75530 whole entry partner): as the sequence (O75530 whole entry partner) above
Sequence of EZH2 (wt) (Q15022 whole entry partner): as the sequence (Q15022 whole entry partner) above
Sequence of EZH2 (Y641F) (Q15910 whole entry Y641F): as the sequence (Q15910 whole entry Y641N) above, with N641F counted along it
Sequence of EZH2 (Y641F) (O75530 whole entry partner): as the sequence (O75530 whole entry partner) above
Sequence of EZH2 (Y641F) (Q15022 whole entry partner): as the sequence (Q15022 whole entry partner) above

Row | AUC0-∞ [1] | Cmax [1] | T1/2 [1] | Tmax [1] | SMILES | F [1] | CL [1] | AUC(0-inf) ([1]; mouse, plasma, oral) | Cmax [1, 3] | Tmax [1, 4] | half-life ([1]; mouse, plasma) | IC50 (Pfeiffer cells; [5]) | IC50 (Pfeiffer cells; [6]) | IC50 (WSU-DLCL2 cells; [7]) | IC50 (WSU-DLCL2 cells; [8]) | further results
1 |  |  |  |  | CCN(c1cc(O[C@H]2C[C@H](N3CCCCC3)C2)cc(C(=O)NCc2c(O)cc(C)[nH]c2=O)c1C)C1CCC(F)(F)CC1 [Example 94, 3-((4,4-difluorocyclohexyl)(ethyl)amino)-N-((4-hydroxy-6-methyl-2-oxo-1,2-dihydropyridin-3-yl)methyl)-2-methyl-5-(trans-3-(piperidin-1-yl)cyclobutoxy)benzamide] |  |  |  |  |  |  |  |  |  |  | IC50 (EZH2 (wt)): 145 nM; IC50 (EZH2 (Y641F)): 123 nM; IC50 (EZH2 (Y641N)): 100 nM
2 |  |  |  |  | CCN(c1cc(O[C@H]2C[C@H](N3CCCCC3)C2)cc(C(=O)NCc2c(C)cc(C)[nH]c2=O)c1C)C1CCOCC1 [Example 92] | 48.6% | 80.84 ± 5.78 mL/min/lg | 25200 ± 4540 ng·h/mL | 9440 ± 1000 ng/mL | 0.58 ± 0.38 h | 2.03 ± 1.14 h |  |  |  |  | IC50 (EZH2 (wt)): 0.52 nM; IC50 (EZH2 (Y641F)): < 0.51 nM; IC50 (EZH2 (Y641N)): < 0.51 nM
3 | 3918 ± 1710 ng·h/mL | 1485 ± 860 ng/mL | 2.19 ± 1.32 h | 0.83 ± 0.29 h | CCN(c1cc(OC2CN(C)C2)cc(C(=O)NCc2c(C)cc(C)[nH]c2=O)c1C)C1CCC(N(C)C)CC1 (stereo not shown) [EPZ349, reference compound] | 12.8% | 149 ± 57.0 mL/min/lg |  |  |  |  | 104 nM | 33 nM | 563 nM | 110 nM | TGI ([2]; 100 mg/kg p.o. QD 21 days): 22.39%
4 |  |  |  |  | CCN(c1cc(O[C@H]2C[C@H](N3CCCCC3)C2)cc(C(=O)NCc2c(C)cc(C)[nH]c2=O)c1C)C1CCC(F)(F)CC1 [Example 68, 3-((4,4-difluorocyclohexyl)(ethyl)amino)-N-((4,6-dimethyl-2-oxo-1,2-dihydropyridin-3-yl)methyl)-2-methyl-5-(trans-3-(piperidin-1-yl)cyclobutoxy)benzamide] | 56.5% | 27.1 ± 5.94 mL/min/lg | 89500 ng·h/mL | 9250 ± 181 ng/mL | 1.33 ± 0.58 h | 10.4 ± 8.53 h |  |  |  |  | TGI ([2]; 50 mg/kg p.o. QD 21 days): 94.28%; IC50 (Pfeiffer cells; [9]): 13 nM; IC50 (Pfeiffer cells; [10]): 4.6 nM; IC50 (WSU-DLCL2 cells; [11]): 49 nM; IC50 (WSU-DLCL2 cells; [12]): 12 nM
5 |  |  |  |  | CCN(c1cc(O[C@H]2C[C@H](N3CCOCC3)C2)cc(C(=O)NCc2c(C)cc(C)[nH]c2=O)c1C)C1CCC(F)(F)CC1 [Example 63, 3-((4,4-difluorocyclohexyl)(ethyl)amino)-N-((4,6-dimethyl-2-oxo-1,2-dihydropyridin-3-yl)methyl)-2-methyl-5-(trans-3-morpholinocyclobutoxy)benzamide] |  |  |  |  |  |  |  |  |  |  | IC50 (EZH2 enzyme complex): 10 to 100 nM; TGI ([2]; 100 mg/kg p.o. QD 21 days): 53.67%
6 | 3071 ± 486 ng·h/mL | 945 ± 283 ng/mL | 5.12 ± 0.89 h | 1.42 ± 1.01 h | CCN(c1cc(OC2CNC2)cc(C(=O)NCc2c(C)cc(C)[nH]c2=O)c1C)C1CCOCC1 [EPZ195, reference compound] | 2.64% | 36.5 ± 6.21 mL/min/lg |  |  |  |  | 385 nM | 127 nM | 1430 nM | 281 nM | 
7 |  |  |  |  | CCN(c1cc(O[C@H]2C[C@H](N3CCCCC3)C2)cc(C(=O)NCc2c(OC)cc(C)[nH]c2=O)c1C)C1CCC(F)(F)CC1 [Example 91, 3-((4,4-difluorocyclohexyl)(ethyl)amino)-N-((4-methoxy-6-methyl-2-oxo-1,2-dihydropyridin-3-yl)methyl)-2-methyl-5-(trans-3-(piperidin-1-yl)cyclobutoxy)benzamide] | 82.3% | 66.9 ± 3.70 mL/min/lg | 51600 ng·h/mL | 9350 ± 1900 ng/mL | 1.67 ± 0.58 h | 7.72 ± 3.14 h |  |  |  |  | TGI ([2]; 50 mg/kg p.o. QD 21 days): 89.39%; IC50 (Pfeiffer cells; [9]): 6 nM; IC50 (Pfeiffer cells; [10]): 2 nM; IC50 (WSU-DLCL2 cells; [11]): 24 nM; IC50 (WSU-DLCL2 cells; [12]): 6 nM
8 | 7476 ± 1311 ng·h/mL | 4059 ± 1830 ng/mL | 2.13 ± 1.02 h | 0.83 ± 0.29 h | CCN(c1cc(OC2CN(C(=O)OC(C)(C)C)C2)cc(C(=O)NCc2c(C)cc(C)[nH]c2=O)c1C)C1CCOCC1 [EPZ194, reference compound] | 9.91% | 59.5 ± 19.1 mL/min/lg |  |  |  |  | 62 nM | 11 nM | 106 nM | 23 nM | 
